Measured values reported in paper PMC11522050, “Cloning, expression and characterisation of a novel mollusc α-1,2-Fucosyltransferase from Crassostrea gigas (CgFUT2)” (Glycoconjugate Journal, 2024).

Tests used:
[1] = molecular target: T1, CgFUT2 (Magallana gigas, UniProt A0AA95ZAK5); experiment: fucosyl transfer, HPLC with UV detection; product by NMR; type: biochemical; details: acceptor; 3 mM GDP-Fuc, 20 mM MnCl2, MES pH 7.0, 37 °C; control Sf9 lysate without enzyme as blank
T1 construct: crude cell lysate used (purification failed)
T1 sequence (A0AA95ZAK5 1-350): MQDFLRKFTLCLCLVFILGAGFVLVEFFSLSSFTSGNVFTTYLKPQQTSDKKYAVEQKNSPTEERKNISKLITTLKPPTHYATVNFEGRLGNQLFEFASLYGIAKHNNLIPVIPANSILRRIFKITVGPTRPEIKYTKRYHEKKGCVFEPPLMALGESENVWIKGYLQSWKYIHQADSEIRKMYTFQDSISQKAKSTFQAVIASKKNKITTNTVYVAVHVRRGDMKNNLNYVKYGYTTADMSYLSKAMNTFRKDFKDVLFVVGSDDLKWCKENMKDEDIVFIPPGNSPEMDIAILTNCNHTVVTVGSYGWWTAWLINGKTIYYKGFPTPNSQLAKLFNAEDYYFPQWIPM

[2] = molecular target: T1, CgFUT2; experiment: fucosyl transfer to pNP-lactose, HPLC with UV detection; type: biochemical; details: 0.25 mM GDP; 3 mM GDP-Fuc, 0.5 mM pNP-β-lactose, 20 mM MnCl2, 2 mM ATP, MES pH 7.0, 37 °C; Sf9 lysate

Row | SMILES | fucosyl transfer, HPLC with UV detection; product by NMR [1] | % decrease of activity at 0.25 mM [2] [%]
1 | O=[N+]([O-])c1ccc(O[C@@H]2O[C@H](CO)[C@@H](O[C@@H]3O[C@H](CO)[C@H](O)[C@H](O)[C@H]3O)[C@H](O)[C@H]2O)cc1 [pNP-β-lactose] | Sf9 cell lysate expressing CgFUT2 and a control Sf9 cell lysate was assessed using pNP-β-lactose | 
2 | Nc1nc2c(ncn2[C@@H]2O[C@H](COP(=O)(O)OP(=O)(O)O)[C@@H](O)[C@H]2O)c(=O)[nH]1 [GDP] |  | 30
